Test results from patent US20160287609A1, “ROR GAMMA MODULATORS” (ETH ZÜRICH, priority 2013, published 2016).

Target: T1, RORγ (Homo sapiens, UniProt P51449)
T1 construct: the cells were transfected with an expression vector for full-length RORγ; expressed in transfected cells; host or cells: 3T3L1 (mouse pre-adipocyte) cells, pcDNA3 expression vector, CMV promoter
T1 sequence (P51449 1-518): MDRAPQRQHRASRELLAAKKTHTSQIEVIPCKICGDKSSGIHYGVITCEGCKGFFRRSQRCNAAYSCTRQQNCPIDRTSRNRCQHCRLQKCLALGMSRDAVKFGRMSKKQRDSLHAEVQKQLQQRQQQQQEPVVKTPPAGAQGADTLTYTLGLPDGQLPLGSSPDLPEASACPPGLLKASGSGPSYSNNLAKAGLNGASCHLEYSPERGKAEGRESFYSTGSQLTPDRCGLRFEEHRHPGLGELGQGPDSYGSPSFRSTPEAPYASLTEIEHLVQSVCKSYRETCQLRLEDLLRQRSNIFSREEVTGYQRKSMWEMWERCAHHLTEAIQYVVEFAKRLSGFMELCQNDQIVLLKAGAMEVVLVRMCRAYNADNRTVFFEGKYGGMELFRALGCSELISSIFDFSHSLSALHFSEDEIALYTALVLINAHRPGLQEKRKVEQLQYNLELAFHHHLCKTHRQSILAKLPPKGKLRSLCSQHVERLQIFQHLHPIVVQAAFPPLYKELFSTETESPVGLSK
Assay: Luciferase transfection assay: repression of RORγ transcriptional activity (MMP3 promoter reporter, dual luciferase)
Type: cell-based
Conditions: 10 μM added to growth medium of transfected 3T3L1 cells; firefly/renilla luciferase ratio 48 h after transfection; average, n at least 6
Method: Adipocyte-like 3T3L1 cells grown to 60-70% confluence in 24 well dishes were used for the assay. The cells were transfected with the reporter gene (pMMP3-pGL3) or the respective empty pGL3 vector as control at a concentration of 0.1 μg/well. The pMMP3-pGL3 reporter expresses the luciferase gene under the control of the promoter of the RORγ target gene matrix metalloproteinase 3 (MMP3). In addition the cells were transfected with an expression vector for full-length RORγ or the respective empty pcDNA3 control vector at 0.1 ug/well. The pCMV-Renilla plasmid served as internal control to normalize for transfection efficacy at a concentration of 0.05 μg/well. All plasmids were transfected at the same time into the cell using the transfection reagent Fugene according to the manufacture's protocol (Promega). […] Firefly as well as renilla luciferase activity was measured 48 h after transfection using the Dual Luciferase Detection System (Promega) following the instructions provided by the manufacturer.
Compounds 13a, 13b and 14a were tested for their ability to inhibit gene transcription induced by the orphan nuclear receptor RORγ using a dual luciferase assay. […] This system allows to determine if a substance of interest is actively repressing the transcriptional activity of RORγ by using reduced luciferase activity as a read-out (FIG. 2).
For the actual experiment 60-70% confluent 3T3L1 pre-adipocytes were transfected with the MMP3 reporter, RORγ and the normalization vector expressing renilla luciferase. […] 48 h after introducing the plasmids, the cells were harvested, lysed and the activity of firefly as well as renilla luciferase measured in each well. The efficacy of a substance to repress RORγ activity was calculated from the ratio of firefly over renilla luciferase activity and normalization to the control wells and the DMSO treated wells. […]

Compound	transcriptional activity of RORγ, as % of the intensity measured in the presence of DMSO
C[C@H](C[C@@H](O)C(=O)NCCS(=O)(=O)O)C1C[C@H](O)[C@H]2C3C(CC[C@]12C)[C@@]1(C)CC[C@@H](O)C[C@H]1C[C@H]3O (stereo in doubt) [Compound 14a, 3α,7β,15α,(23R)-tetrahydroxy-5β-24-oxocholanyl-amino ethansulfonic acid]	56%
C[C@H](C[C@@H](O)C(=O)O)C1C[C@H](O)[C@H]2C3C(CC[C@]12C)[C@@]1(C)CC[C@@H](O)C[C@H]1C[C@H]3O (stereo partly drawn) [Compound 13a, 3α,7α,15α,(23R)-tetrahydroxy-5β-cholanoic acid]	52%
C[C@H](C[C@H](O)C(=O)O)C1C[C@H](O)[C@H]2C3C(CC[C@]12C)[C@@]1(C)CC[C@@H](O)C[C@H]1C[C@H]3O (stereo partly drawn) [Compound 13b, 3α,7α, 15α,(23S)-tetrahydroxy-5β-cholanoic acid]	57%
